Results: patent US8192962B2, “Processes for detecting toxic substances” (Daikin Industries, Ltd., priority 2001, dated 2012)

Tested on: Genes belonging to other category
Test: DNA chip mRNA expression in yeast, genes belonging to other category (Table 9)
Type: cell-based, Saccharomyces cerevisiae S288C
Procedure, shortened: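 Chemical exposure: 2 h, log-phase S. cerevisiae S288C, YPD, 25° C., dose set to inhibit growth without death. Profiling: mRNA labeled by reverse transcription with Cy3- or Cy5-dUTP, hybridized to whole-genome array. Output: fluorescence ratio against untreated culture.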

With `CN(C)C(=S)SSC(=S)N(C)C` [(10), Tetramethylthiuram disulfide] the “The level of expressed mRNA in the presence of chemical substance/The level of expressed mRNA in the absence of chemical substance” value (yeast gene YDR505C) was 1.0, the “The level of expressed mRNA in the presence of chemical substance/The level of expressed mRNA in the absence of chemical substance” value (yeast gene YDR510W) was 2.5 and the “The level of expressed mRNA in the presence of chemical substance/The level of expressed mRNA in the absence of chemical substance” value (yeast gene YDR515W) was 2.7. The “The level of expressed mRNA in the presence of chemical substance/The level of expressed mRNA in the absence of chemical substance” value (yeast gene YEL012W) was 4.2, the “The level of expressed mRNA in the presence of chemical substance/The level of expressed mRNA in the absence of chemical substance” value (yeast gene YEL042W) was 0.3 and the “The level of expressed mRNA in the presence of chemical substance/The level of expressed mRNA in the absence of chemical substance” value (yeast gene YEL066W) was 2.4. For the same compound, the “The level of expressed mRNA in the presence of chemical substance/The level of expressed mRNA in the absence of chemical substance” value (yeast gene YER009W) was 1.0, the “The level of expressed mRNA in the presence of chemical substance/The level of expressed mRNA in the absence of chemical substance” value (yeast gene YER012W) was 2.7 and the “The level of expressed mRNA in the presence of chemical substance/The level of expressed mRNA in the absence of chemical substance” value (yeast gene YER039C) was 0.8. For the same compound, the “The level of expressed mRNA in the presence of chemical substance/The level of expressed mRNA in the absence of chemical substance” value (yeast gene YER076C) was 1.2, the “The level of expressed mRNA in the presence of chemical substance/The level of expressed mRNA in the absence of chemical substance” value (yeast gene YER107C) was 0.5 and the “The level of expressed mRNA in the presence of chemical substance/The level of expressed mRNA in the absence of chemical substance” value (yeast gene YER130C) was 1.3. For the same compound, the “The level of expressed mRNA in the presence of chemical substance/The level of expressed mRNA in the absence of chemical substance” value (yeast gene YFL022C) was 0.5, the “The level of expressed mRNA in the presence of chemical substance/The level of expressed mRNA in the absence of chemical substance” value (yeast gene YFL028C) was 1.8 and the “The level of expressed mRNA in the presence of chemical substance/The level of expressed mRNA in the absence of chemical substance” value (yeast gene YFL043C) was 3.8. The “The level of expressed mRNA in the presence of chemical substance/The level of expressed mRNA in the absence of chemical substance” value (yeast gene YFR004W) was 2.6, the “The level of expressed mRNA in the presence of chemical substance/The level of expressed mRNA in the absence of chemical substance” value (yeast gene YFR014C) was 1.6 and the “The level of expressed mRNA in the presence of chemical substance/The level of expressed mRNA in the absence of chemical substance” value (yeast gene YFR050C) was 2.1. For the same compound, the “The level of expressed mRNA in the presence of chemical substance/The level of expressed mRNA in the absence of chemical substance” value (yeast gene YGL158W) was 0.9, the “The level of expressed mRNA in the presence of chemical substance/The level of expressed mRNA in the absence of chemical substance” value (yeast gene YGL180W) was 3.7 and the “The level of expressed mRNA in the presence of chemical substance/The level of expressed mRNA in the absence of chemical substance” value (yeast gene YGL185C) was 2.3. For the same compound, the “The level of expressed mRNA in the presence of chemical substance/The level of expressed mRNA in the absence of chemical substance” value (yeast gene YGL229C) was 1.7, the “The level of expressed mRNA in the presence of chemical substance/The level of expressed mRNA in the absence of chemical substance” value (yeast gene YGR120C) was 1.2 and the “The level of expressed mRNA in the presence of chemical substance/The level of expressed mRNA in the absence of chemical substance” value (yeast gene YGR136W) was 2.2. For the same compound, the “The level of expressed mRNA in the presence of chemical substance/The level of expressed mRNA in the absence of chemical substance” value (yeast gene YGR189C) was 0.9, the “The level of expressed mRNA in the presence of chemical substance/The level of expressed mRNA in the absence of chemical substance” value (yeast gene YGR213C) was 6.9 and the “The level of expressed mRNA in the presence of chemical substance/The level of expressed mRNA in the absence of chemical substance” value (yeast gene YGR248W) was 3.2. For the same compound, the “The level of expressed mRNA in the presence of chemical substance/The level of expressed mRNA in the absence of chemical substance” value (yeast gene YGR257C) was 1.9, the “The level of expressed mRNA in the presence of chemical substance/The level of expressed mRNA in the absence of chemical substance” value (yeast gene YHR004C) was 0.6 and the “The level of expressed mRNA in the presence of chemical substance/The level of expressed mRNA in the absence of chemical substance” value (yeast gene YHR071W) was 7.2. For the same compound, the “The level of expressed mRNA in the presence of chemical substance/The level of expressed mRNA in the absence of chemical substance” value (yeast gene YHR109W) was 1.8, the “The level of expressed mRNA in the presence of chemical substance/The level of expressed mRNA in the absence of chemical substance” value (yeast gene YHR136C) was 2.0 and the “The level of expressed mRNA in the presence of chemical substance/The level of expressed mRNA in the absence of chemical substance” value (yeast gene YHR139C) was 46.6. The “The level of expressed mRNA in the presence of chemical substance/The level of expressed mRNA in the absence of chemical substance” value (yeast gene YHR142W) was 0.9, the “The level of expressed mRNA in the presence of chemical substance/The level of expressed mRNA in the absence of chemical substance” value (yeast gene YHR161C) was 2.0 and the “The level of expressed mRNA in the presence of chemical substance/The level of expressed mRNA in the absence of chemical substance” value (yeast gene YIL034C) was 1.3. The “The level of expressed mRNA in the presence of chemical substance/The level of expressed mRNA in the absence of chemical substance” value (yeast gene YIL123W) was 0.2, the “The level of expressed mRNA in the presence of chemical substance/The level of expressed mRNA in the absence of chemical substance” value (yeast gene YIL140W) was 0.6 and the “The level of expressed mRNA in the presence of chemical substance/The level of expressed mRNA in the absence of chemical substance” value (yeast gene YJL035C) was 1.4. The “The level of expressed mRNA in the presence of chemical substance/The level of expressed mRNA in the absence of chemical substance” value (yeast gene YJL059W) was 1.6, the “The level of expressed mRNA in the presence of chemical substance/The level of expressed mRNA in the absence of chemical substance” value (yeast gene YJL073W) was 0.7 and the “The level of expressed mRNA in the presence of chemical substance/The level of expressed mRNA in the absence of chemical substance” value (yeast gene YJL089W) was 3.9. The “The level of expressed mRNA in the presence of chemical substance/The level of expressed mRNA in the absence of chemical substance” value (yeast gene YJL116C) was 2.6, the “The level of expressed mRNA in the presence of chemical substance/The level of expressed mRNA in the absence of chemical substance” value (yeast gene YJL141C) was 1.3 and the “The level of expressed mRNA in the presence of chemical substance/The level of expressed mRNA in the absence of chemical substance” value (yeast gene YJR004C) was 0.7. For the same compound, the “The level of expressed mRNA in the presence of chemical substance/The level of expressed mRNA in the absence of chemical substance” value (yeast gene YJR049C) was 1.4.
